# From US20240287042A1, “NOVEL COMPOUND HAVING INHIBITORY ACTIVITY AGAINST PENDRIN, AND PHARMACEUTICAL USES THEREOF” (UIF (University Industry Foundation), Yonsei University, priority 2021, published 2024)
# Target: T1, human wild-type (WT)-pendrin (Homo sapiens, UniProt O43511)
# T1 construct: expressed in transfected cells
# T1 sequence (O43511 1-780): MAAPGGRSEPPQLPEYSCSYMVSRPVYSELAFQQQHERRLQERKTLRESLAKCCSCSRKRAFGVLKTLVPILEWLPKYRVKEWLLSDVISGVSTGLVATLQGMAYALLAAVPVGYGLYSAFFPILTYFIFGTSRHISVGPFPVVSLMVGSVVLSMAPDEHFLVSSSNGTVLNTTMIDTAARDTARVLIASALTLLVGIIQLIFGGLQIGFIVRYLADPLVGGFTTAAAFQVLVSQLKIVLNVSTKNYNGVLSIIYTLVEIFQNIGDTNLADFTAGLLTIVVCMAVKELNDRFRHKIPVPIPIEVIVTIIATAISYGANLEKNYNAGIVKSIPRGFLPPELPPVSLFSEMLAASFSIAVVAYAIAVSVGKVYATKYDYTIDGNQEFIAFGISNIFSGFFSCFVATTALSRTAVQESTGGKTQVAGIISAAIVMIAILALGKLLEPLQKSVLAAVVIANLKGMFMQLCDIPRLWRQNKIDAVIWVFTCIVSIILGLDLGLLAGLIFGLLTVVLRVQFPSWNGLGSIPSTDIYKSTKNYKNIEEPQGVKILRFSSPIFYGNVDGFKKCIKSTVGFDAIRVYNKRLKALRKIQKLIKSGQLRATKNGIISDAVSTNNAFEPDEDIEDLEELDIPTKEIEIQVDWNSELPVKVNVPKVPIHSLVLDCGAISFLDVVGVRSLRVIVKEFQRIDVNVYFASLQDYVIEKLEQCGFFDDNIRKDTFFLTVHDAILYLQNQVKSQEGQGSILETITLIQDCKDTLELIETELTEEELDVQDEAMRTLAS
# Experiment: Pendrin Cl−/I− exchange inhibitory activity, YFP fluorescence in CHO-K1 cells
# Assay type: cell-based
# Conditions: CHO-K1; for inhibition at 1 µM: compound concentration 1 μM; for inhibition at 3 µM: compound concentration 3 μM; for inhibition at 10 µM: compound concentration 10 μM; for inhibition at 30 µM: compound concentration 30 μM; for inhibition at 100 µM: compound concentration 100 μM
# Experimental: Chinese hamster ovary (CHO)-K1 cells were cultured in DMEM medium containing 10% fetal bovine serum (FBS), 100 units/ml of penicillin and 100 μg/ml streptomycin. CHO-K1 cells were stably transfected with pcDNA3.1 encoding the halide sensor YFP-H148Q/I152L/F46L and human wild-type (WT)-pendrin.
# (§1) CHO-K1 cells expressing human WT pendrin and YFP-F46L/H148Q/I152L were plated in 96-well microplates at a density of 2×10^4 cells per well, and cultured for 48 hours. Each well of the cell cultured 96-well plate was washed 2 times with 200 μL of PBS, and filled with 50 μL of HEPES buffered solution (140 mM NaCl, 5 mM KCl, 1 mM MgCl2, 1 mM CaCl2), 10 mM glucose and 10 mM HEPES (pH 7.4)). Test compounds (1 μL) were added to a final concentration of 1, 3, 10, 30 and 100 μM. After culturing at 37° C. for 10 minutes, the 96-well plate was located on the FLUOstar Omega Microplate Reader (BMG Labtech, Ortenberg, Germany) for a fluorescence assay. Fluorescence was recorded continuously (400 ms per point) for 1 second (baseline), whereby each well was assayed individually for pendrin-mediated I-influx. Then 50 μL of Na-substituted HEPES buffered solution (replacing NaCl with NaI) was added using a liquid injector at 1 second, and YFP fluorescence was recorded for 5 seconds. The initial iodide influx rate was determined from the initial slope of fluorescence by nonlinear regression, after the injection of iodide.
# as §1, with “Chinese hamster ovary (CHO)-K1 cells were cultured in DMEM medium containing 10% fetal bovine serum (FBS), 100 units/ml of penicillin and 100 μg/ml streptomycin. CHO-K1 cells were stably transfected with pcDNA3.1 encoding the halide sensor YFP-H148Q/I152L/F46L and human wild-type (WT)-pendrin. 3-2: Assay of Cl^−/I^− exchange activity CHO-K1” for “CHO-K1”, “50” for “1, 3, 10, 30 and 100”, “Then,” for “Then”, “NaI-substituted” for “Na-substituted”
Compound,inhibition at 1 µM,inhibition at 3 µM,inhibition at 10 µM,inhibition at 30 µM,inhibition at 100 µM
"O=C(O)c1[nH]c2ccc(Cl)cc2c1CC(=O)N1CCN(c2cc(Cl)c(Cl)c(Cl)c2)CC1 [YPI-A4916, 5-Chloro-3-(2-oxo-2-(4-(3,4,5-trichlorophenyl)piperazin-1-yl)ethyl)-1H-indole-2-carboxylic acid]",< 20%,45.7%,82.6%,90.9%,91.4%
"O=C(O)c1[nH]c2ccc(Cl)cc2c1CC(=O)N1CCN(c2ccccc2F)CC1 [YPI-A4917, 5-Chloro-3-(2-(4-(2-fluorophenyl)piperazin-1-yl)-2-oxoethyl)-1H-indole-2-carboxylic acid]",< 20%,< 20%,< 20%,< 20%,78.3%
"Cc1c(Cl)cccc1N1CCN(C(=O)Cc2c(C(=O)O)[nH]c3ccc(Cl)cc23)CC1 [YPI-A4918, 5-Chloro-3-(2-(4-(3-chloro-2-methylphenyl)piperazin-1-yl)-2-oxoethyl)-1H-indole-2-carboxylic acid]",< 20%,34.7%,87.5%,94.8%,95.6%
"O=C(O)c1ccc(N2CCN(C(=O)Cc3c(C(=O)O)[nH]c4ccc(Cl)cc34)CC2)cc1 [YPI-A4919, 3-(2-(4-(4-Carboxyphenyl)piperazin-1-yl)-2-oxoethyl)-5-chloro-1H-indole-2-carboxylic acid]",< 20%,< 20%,< 20%,< 20%,< 20%
"CC(=O)c1ccc(N2CCN(C(=O)Cc3c(C(=O)O)[nH]c4ccc(Cl)cc34)CC2)cc1 [YPI-A4920, 3-(2-(4-(4-Acetylphenyl)piperazin-1-yl)-2-oxoethyl)-5-chloro-1H-indole-2-carboxylic acid]",< 20%,< 20%,< 20%,< 20%,< 20%
"CCOc1ccc(N2CCN(C(=O)Cc3c(C(=O)O)[nH]c4ccc(Cl)cc34)CC2)cc1 [YPI-A4921, 5-Chloro-3-(2-(4-(4-ethoxyphenyl)piperazin-1-yl)-2-oxoethyl)-1H-indole-2-carboxylic acid]",< 20%,< 20%,< 20%,72.5%,73.8%
"CC(C)(C)c1ccc(N2CCN(C(=O)Cc3c(C(=O)O)[nH]c4ccc(Cl)cc34)CC2)cc1 [YPI-A4943, 3-(2-(4-(4-(Tert-butyl)phenyl)piperazin-1-yl)-2-oxoethyl)-5-chloro-1H-indole-2-carboxylic acid]",< 20%,34.1%,70.8%,81.9%,91.5%
"Cc1ccc2[nH]c(C(=O)O)c(CC(=O)N3CCN(c4ccc(C(C)(C)C)cc4)CC3)c2c1 [YPI-A4944, 3-(2-(4-(4-(Tert-butyl)phenyl)piperazin-1-yl)-2-oxoethyl)-5-methyl-1H-indole-2-carboxylic acid]",< 20%,< 20%,45.4%,76.2%,77.3%
Cc1cc(C)c2[nH]c(C(=O)O)c(CC(=O)N3CCN(c4ccc(C(C)(C)C)cc4)CC3)c2c1 [YPI-A4945],< 20%,< 20%,< 20%,38.5%,38.6%
"Cc1ccc2[nH]c(C(=O)O)c(CC(=O)N3CCN(c4c(C)cccc4C)CC3)c2c1 [YPI-A4946, 3-(2-(4-(2,6-Dimethylphenyl)piperazin-1-yl)-2-oxoethyl)-5-methyl-1H-indole-2-carboxylic acid]",22.4%,56.9%,82.3%,94.5%,95.6%
"Cc1cc(C)c2[nH]c(C(=O)O)c(CC(=O)N3CCN(c4c(C)cccc4C)CC3)c2c1 [YPI-A4947, 3-(2-(4-(2,6-dimethylphenyl)piperazin-1-yl)-2-oxoethyl)-5,7-dimethyl-1H-indole-2-carboxylic acid]",< 20%,< 20%,40.8%,41.3%,41.9%
"Cc1cc(C)c2[nH]c(C(=O)O)c(CC(=O)N3CCN(c4c(C)cccc4Cl)CC3)c2c1 [YPI-A4949, 3-(2-(4-(2-Chloro-6-methylphenyl)piperazin-1-yl)-2-oxoethyl)-5,7-dimethyl-1H-indole-2-carboxylic acid]",< 20%,39.5%,78.9%,79.3%,79.6%
"Cc1cccc(Cl)c1N1CCN(C(=O)Cc2c(C(=O)O)[nH]c3ccc(F)cc23)CC1 [YPI-A4963, 3-(2-(4-(2-Chloro-6-methylphenyl)piperazin-1-yl)-2-oxoethyl)-5-fluoro-1H-indole-2-carboxylic acid]",< 20%,52.3%,89.6%,100%,–
"Cc1cccc(C)c1N1CCN(C(=O)Cc2c(C(=O)O)[nH]c3ccc(F)cc23)CC1 [YPI-A4964, 3-(2-(4-(2,6-Dimethylphenyl)piperazin-1-yl)-2-oxoethyl)-5-fluoro-1H-indole-2-carboxylic acid]",< 20%,< 20%,51.4%,88.9%,–
"CC(C)(C)c1ccc(N2CCN(C(=O)Cc3c(C(=O)O)[nH]c4ccc(F)cc34)CC2)cc1 [YPI-A4965, 3-(2-(4-(4-(Tert-butyl)phenyl)piperazin-1-yl)-2-oxoethyl)-5-fluoro-1H-indole-2-carboxylic acid]",< 20%,< 20%,< 20%,62.7%,–
"O=C(O)c1[nH]c2ccc(Cl)cc2c1CC(=O)N1CCN(c2ccc(-c3ccccc3)cc2)CC1 [YPI-A4966, 3-(2-(4-([1,1′-biphenyl]-4-yl)piperazin-1-yl)-2-oxoethyl)-5-chloro-1H-indole-2-carboxylic acid]",< 20%,< 20%,< 20%,< 20%,< 20%
